# According to US10716783B2, “Prolylhydroxylase/ATF4 inhibitors and methods of use for treating neural cell injury or death and conditions resulting therefrom” (CORNELL UNIVERSITY, priority 2013, dated 2020):
# Entries after “also recorded” stand apart in the source; their conditions may differ. Read-outs that look alike come from different tables or passages of the source.
# Key:
# recombinant HIF PHD2 = recombinant HIF PHD2 (Homo sapiens, UniProt Q9GZT9); assay: Recombinant HIF PHD2 hydroxylation of HIF peptide, non-denaturing mass spectrometry; type: biochemical
# Description: (§1) FIGS. 3A-3G. Validation of adaptoquin as a novel HIF PHD inhibitor. […] Under steady state conditions, activity of HIF PHD2 with its co-substrate 2-oxoglutarate involves two peaks that represent non-hydroxylated and hydroxylated peptide. The hydroxylated peptide disappears in the presence of HIF PHD2 inhibition by adaptoquin. […] The reporter contains the ODD domain of HIF-1 which confers HIF PHD regulated stability on it. It is expressed in all cells of the body, but is destabilized in the absence of HIF PHD inhibition and stabilized in its presence. Quantitative measurements confirm stability of the ODD-luc in brain, kidney and liver (FIGS. 3D and 3E.).
# (§2) To verify that the changes in light in the brain reflect parenchymal changes in ODD-luciferase levels rather than increases in changes in skin or dural ODD-luciferase, ODD-luciferase activity was measured normalized to total protein in lysates from distinct brain regions using a luminometer.
# [1] = system: intracerebral hemorrhage (autologous blood infusion); assay: Autologous blood infusion ICH in rats; type: in vivo
# Experimental: FIGS. 4A-4N. Adaptoquin delivered post-injury reduces cell death and enhances functional recovery post injury in mice and rats. Adaptoquin's effects in mice are not associated with global shifts of iron out of the brain. FIG. 4A: Experimental design for schedule of delivery of adaptaquin post-ICH. 30 mg/kg was delivered post-injury and then daily for seven days during which behavioral analysis was done. Mice were sacrificed at day 7 for qPCR and Fluoro-jade staining. […] FIG. 4J: Protocol for adaptoquin treatment of rats with ICH. ICH is modeled by autologous blood infusion and not collagenase in these studies. Behavior is tracked by a single pellet reaching task out to 28 days, but the schedule of infusion is similar to what is used in mice-2 hrs post blood infusion and then daily out to seven days. Behavior is monitored before, from 9-11 days and from 25-28 days. […] FIG. 4L: Protocol for evaluating the total concentrations of iron and zinc in brain following ICH in vehicle and adaptoquin treated mice. FIGS. 4M, 4N: Pseudocolored sections of collagenase induced ICH in mice after 7 days. […] These studies are consistent with the notion that adaptoquin works by inhibiting a specific metalloenzyme rather than global movement of metal ions.
# To determine whether adaptoquin could ameliorate outcomes using a distinct model of ICH in a distinct species, adaptoquin was tested it (30 mg/kg, intraperitoneal) in a model of autologous blood infusion in rats. Autologous blood infusion causes a narrower slit like lesion in the striatum than collagenase, but results in motor impairments out beyond 30 days. Adaptoquin (30 mg/kg) was administered two hours after autologous blood infusion and then daily for seven days.
# HIF PHDs = assay: ODD-luciferase reporter mice, in vivo bioluminescence imaging and tissue lysates; conditions: for ODD-luciferase activity in brain: in vivo bioluminescence imaging, intraperitoneal; for ODD-luciferase activity in lysates from different brain regions: normalized to total protein, luminometer
# Description: as §1
# To identify HIF PHD inhibitors suitable for testing in ICH, the experiment first sought to identify which of the known HIF PHD inhibitors could penetrate the blood brain barrier to inhibit HIF PHD activity in the CNS. To monitor HIF PHD activity dynamically, the experiment utilized mice that had previously been engineered to ubiquitously express the oxygen degradation domain (ODD) of HIF-1α fused to firefly luciferase. The ODD domain contains proline 402 and 564, which are hydroxylated by the HIF PHDs to degrade HIF-1 or the ODD-luciferase. Accordingly, these mice have been used previously to track HIF PHD activity in diverse organs in vivo using in vivo bioluminescence imaging.
# as §2
# HIF-1 protein = HIF-1 protein stabilisation in primary neurons (Western blot); type: cell-based; conditions: FIG. 6H, 6I
# Description: FIGS. 1A-1L: Structurally diverse HIF PHD inhibitors stabilize HIF-1 and abrogate toxicity induced by hemin, a byproduct of blood breakdown, in cortical neurons hippocampal neuroblasts and striatal neuroblasts (not shown). […] FIGS. 6A-6I. […] Expression of ATF4 was forced into primary neurons, which induces death of these neurons by MTT assay (FIG. 6D) or LIVE/DEAD staining, Green is live, Red is dead (FIG. 6E).
# primary cortical neurons = assay: Oxidative glutamate (homocysteate) toxicity in cortical neurons; type: cell-based, rat
# Description: FIGS. 5A-5G. […] Because adaptoquin is a HIF PHD inhibitor that appears to work independent of HIF transcription factors, and because hemin induced death involves oxidative stress, the effect of adaptoquin on oxidative glutamate toxicity was examined. This form of toxicity is observed in primary cortical neurons from E17 rat embryos (2 DIV) and involves glutamate mediated inhibition of the amino acid cystine via its plasma membrane transporter. […] Accordingly, the optimal concentration of adaptoquin in protecting neurons was first determined and found to be about 1 micromolar. […] To determine the mechanism of adaptoquin, transcriptomic experiments were performed using non-protective and protective concentrations of drug harvesting RNA just prior to the time the cell's becoming insensitive to adaptoquin (16 hrs), as provided in FIG. 5C.
# To probe the mechanism of adaptoquin-induced neuroprotection, the study moved its attention to a well established model of oxidative stress in neurons induced by glutamate. Like hemin induced toxicity, oxidative glutamate toxicity is abrogated by forced expression of GPX4 (Alim et al., unpublished observations). However, oxidative glutamate toxicity has a much longer window before cells are committed to die (eighteen hours), facilitating analysis of primary events involved in cell death and protection. A detailed dose response and therapeutic window study was performed with adaptoquin in mouse cortical neurons exposed to glutamate or the glutamate analog, homocysteate. […] To probe the mechanism of this potent, delayed protection, a microarray transcriptomics study was performed using RNA from neuronal cultures that had been exposed to glutamate (or HCA) for 16 hours with vehicle, as well as non-protective (100 nM) and protective doses of adaptoquin (1 μM). Protective, but […] doses of adaptoquin reduced expression of a host of genes induced by oxidative stress including Tribbles homolog 3, methylene tetrahydrofolate reductase, the Xc-transporter, and stanniocalcin-2 hormone glycoprotein.
# ATF4 = ATF4 hydroxylation (ATF4 immunoprecipitation, hydroxyproline immunoblot); type: cell-based
# recombinant HIF PHD2, sequence (Q9GZT9 whole entry, the tested form may be a part): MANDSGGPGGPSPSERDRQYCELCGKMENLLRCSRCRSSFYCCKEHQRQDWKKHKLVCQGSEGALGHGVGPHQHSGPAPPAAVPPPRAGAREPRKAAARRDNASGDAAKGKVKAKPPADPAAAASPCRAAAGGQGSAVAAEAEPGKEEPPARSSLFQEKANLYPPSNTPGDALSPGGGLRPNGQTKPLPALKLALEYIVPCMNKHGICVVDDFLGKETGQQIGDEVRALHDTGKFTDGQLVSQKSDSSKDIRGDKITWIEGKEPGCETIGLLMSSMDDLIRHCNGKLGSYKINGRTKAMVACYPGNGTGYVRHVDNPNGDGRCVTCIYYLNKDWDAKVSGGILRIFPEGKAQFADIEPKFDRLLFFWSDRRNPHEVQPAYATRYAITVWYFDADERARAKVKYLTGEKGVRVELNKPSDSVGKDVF
smiles,measurement,setting,value
Oc1cccnc1NC(c1ccc(Cl)cc1)c1ccc2cccnc2c1O (stereo not drawn) [adaptoquin],Inhibition of recombinant HIF PHD2 activity (hydroxylation of HIF peptide),recombinant HIF PHD2,inhibit the ability of recombinant HIF prolyl hydroxylase 2 to hydroxylate an HIF peptide
same,Inhibition of recombinant HIF PHD2 activity (hydroxylation of HIF peptide),recombinant HIF PHD2; listed as Adpatoquin,inhibits activity of recombinant HIF PHD2
same,Body weight,[1]; 30 mg/kg i.p.,no significant changes
same,Glucose levels,[1]; 30 mg/kg i.p.,no significant changes
same,Temperature,[1]; 30 mg/kg i.p.,no significant changes
same,Single pellet reaching task (percent correct),"[1]; 30 mg/kg i.p. 2 h after blood infusion then daily for seven days, later time points",significant improvements in percent correct; also recorded: improves single pellet reaching
same,Message levels of p21 waf1/cip1 in brain,HIF PHDs; adaptoquin 30 mg/kg,increased message levels of p21 waf1/cip1
same,ODD-luciferase activity in brain,HIF PHDs; adaptoquin 30 mg/kg,significantly increase ODD-luciferase levels and activity
same,ODD-luciferase activity in brain,"HIF PHDs; adaptoquin 30 mg/kg, listed as Adaptoquin",inhibits the HIF PHDs in brain in a dose dependent fashion
same,ODD-luciferase activity in lysates from different brain regions,HIF PHDs,An increase in activity
same,ODD-luciferase activity in lysates from different brain regions,HIF PHDs; listed as Adaptoquin,dose dependent increases throughout the brain
same,HIF-1 stabilisation relative to protective concentration,HIF-1 protein,stabilizes HIF-1 at concentrations higher than that required for full protection
same,Protection against oxidative death,primary cortical neurons; 0.1 micromolar (100 nM),non-protective
same,Protection against oxidative death,primary cortical neurons; 1 micromolar,complete protection
same,Time after glutamate/homocysteate treatment at which the compound can still be added and protect,primary cortical neurons; 1 micromolar,up to 16 hours
same,Protection against oxidative death,"primary cortical neurons; 1 micromolar, listed as adaptaquin",protection is significant
same,Optimal concentration in protecting neurons,primary cortical neurons; oxidative glutamate toxicity,about 1 micromolar
same,ATF4 hydroxylation,ATF4,inhibits ATF4 hydroxylation
